# Data published in US20230272077A1, “PD-1 SIGNAL INHIBITOR COMBINATION THERAPY” (KYOTO UNIVERSITY, priority 2015, published 2023).
# “Also recorded” adds a separate entry of the source.
# Experiments:
# RENCA = assay: RENCA-bearing BALB/c mice (tumor volume); format: in vivo, mouse; details: RENCA in BALB/c mice, combined with anti-PD-L1 antibody
# Description: Murine renal cell carcinoma RENCA cells (2×10^6) were inoculated into BALB/c mice. After 7 days, anti-PD-L1 antibody (1-111A, 150 μg) and AMPK inhibitor (Compound C: 200 μg in BBS, 200 l) were administered intraperitoneally. Anti-PD-L1 antibody was administered 3 times at a regular interval of 6 days; Compound C (C.C) was administered 7 times at a regular interval 2 days. Tumor volumes (mm^3) from day 0 to day 25 of RENCA inoculation are shown.
# MC38 = assay: Mouse therapy model, MC38-bearing mice (tumor volume, survival); format: in vivo; details: MC38-bearing mice
# Description: MC38 (5×10^5) and MethA (5×10^5) cells were intradermally injected on the right flank. MC38 was inoculated into C57BL/6 mice and MethA was inoculated into BALB/c mice. For monotherapy, mice were intraperitoneally injected with 150 μg of PD-L1 mouse antibody (1-111A) (prepared by the laboratory of the present inventors) 5 days after the tumor inoculation. Therapy with PD-L1 antibody alone was repeated three times every 5 days. For combination therapy, administration of PD-L1 antibody and chemical agents started 7 days after tumor injection. Chemical agents were injected at a regular interval of 2 days and PD-L1 antibody at a regular interval of 5 days (shown in FIG. 3b). Tumors were measured on every alternate day, and tumor volumes were calculated using the formula for typical ellipsoid, π×(length×breadth×height/6).
# The following chemical reagents were used at the indicated concentrations for combination therapy. AMPK activator: A769662, 6 mg/kg (Abcam); mTOR activator: MHY1485, 3 μg/kg (Sigma-Aldrich); uncoupler: carbonylcyanide-p-trifluoromethoxyphenylhydrazone (FCCP), 1.2 mg/kg (Abcam); uncoupler: 2,4-Dinitrophenol (DNP), 1.7 mg/kg (Aldrich); SIRT1 activator: resveratrol, 0.5 mg/kg (Abcam); ROS scavenger: Mn (III) tetrakis (4-benzoic acid) porphyrin (MnTBAP), 1.25 mg/kg (Calbiochem); ROS generator: tert-butyl hydroperoxide solution (Luperox TBH70X), 200 μL/kg (Sigma-Aldrich); ATP synthase inhibitor: oligomycin, 250 μg/kg (Sigma-Aldrich); paraquat 2 mg/kg (Nakalai Tesque); oltipraz 1.9 mg/kg (Sigma); bezafibrate 1 mg/kg (ChemCruz).
# All reagents were freshly prepared just before use. Each reagent was dissolved in the solvent indicated in the instructions. Note that the AMPK activator, mTOR activator, uncouplers and SIRT1 activator were prepared from fresh unused vials in each series of experiments. Dissolved reagents were diluted in PBS, and a 200 l aliquot was injected per mouse.
# Murine colon adenocarcinoma MC38 cells (5×10^5) were inoculated into C57BL/6 mice. After 7 days, anti-PD-L1 antibody (1-111A, 150 μg) and AMPK inhibitor (Compound C: 200 μg in BBS, 200 μL) were administered intraperitoneally. Anti-PD-L1 antibody was administered 3 times at a regular interval of 6 days; Compound C (C.C) was administered 7 times at a regular interval 2 days.
# MC38 cells (5×10^5) were inoculated into C57BL/6 mice. After 7 days, anti-PD-L1 antibody (1-111A, 150 μg) and PGC-1α/transcription factor complex activator (2-(4-{2-[(4-chlorobenzoyl)amino]ethyl}phenoxy)-2-methylpropanoic acid (bezafibrate): 10 ug in PBS, 200 ul) were administered intraperitoneally. Anti-PD-L1 antibody was administered 3 times at a regular interval of 6 days; bezafibrate was administered 7 times at a regular interval 2 days.
# [1] = test system: mTOR and its associated proteins S6K and 4EBP1; assay: Western blotting of DLN CD8+ T cells, mTOR pathway; format: in vivo, mouse; details: CD8+ T cells from mice treated with PD-L1 antibody and reagent
# Description: (§1) FIG. 7. […] Phosphorylation of AMPK, ACC, mTOR and S6K and the expression of SIRT1 and 4EBP1 were analyzed by Western blotting. b) MC38-bearing mice were treated with PD-L1 antibody in combination with AMPK activator (A769662) and/or mTOR activator (MHY1485) according to the same schedule as shown in FIG. 3b.
# (§2) CD8^+ T cells were isolated using mouse CD8 Microbeads (Miltenyi Biotec). After washing with PBS twice, 2×10^6 cells were solubilized in a lysis buffer containing 30 mM Tris-HCl (pH.7.4), 150 mM NaCl, 10% glycerol, 0.1% SDS, 1% Triton-X-100, 0.05% Na-Doc, 5 mM EDTA (pH.8.0), protease inhibitor mixture (Roche Molecular Biochemicals) and phosphatase inhibitors (Nacalai Tesque). After measurement of protein concentrations by DC protein assay (Bio-Rad), 4 μg of proteins was mounted on 4 to 20% gradient Mini-PROTEAN TGX Gels (Bio-Rad) and electroblotted onto nitrocellulose membranes, which were then incubated in a blocking buffer of TBS containing 1% BSA. Primary antibody incubations were carried out overnight at 4° C. in blocking buffer. After washing, secondary antibody incubations were carried out at room temperature for 40 min in blocking buffer. Blots were developed with enhanced chemiluminescence (Amersham Pharmacia). […]
# [2] = test system: AMPK and its associated proteins ACC and SIRT1; assay: Western blotting of DLN CD8+ T cells, AMPK pathway; format: in vivo, mouse; details: CD8+ T cells from mice treated with PD-L1 antibody and reagent
# Description: as §1, §2
# [3] = used in 1930's; cited from earlier work
# [4] = reagent combined with PD-L1 antibody vs PD-L1 antibody alone
SMILES,enhancement of efficacy of anti-PD-L1 antibody therapy (tumor volume) (RENCA),enhancement of efficacy of anti-PD-L1 antibody therapy (tumor volume) (RENCA; listed as compound C),enhancement of antitumor effect of PD-L1 antibody (tumor volume) (MC38; [4]),"enhancement of antitumor effect of PD-L1 antibody (tumor volume) (MC38; reagent combined with PD-L1 antibody vs PD-L1 antibody alone, listed as compound C)",activation of mTOR and its associated proteins S6K and 4EBP1 [1],activation of AMPK and its associated proteins ACC and SIRT1 [2],"antitumor activity of triple combination of PD-L1 antibody, DNP and Luperox (MC38; DNP and Luperox both with PD-L1 antibody)","antitumor effect when administered alone (MC38; reagent alone, no PD-L1 antibody, tumor volume)",survival rate (MC38; [4]),health problems in use as diet supplement [3]
"c1cc(-c2cnn3cc(-c4ccc(OCCN5CCCCC5)cc4)cnc23)ccn1 [AMPK inhibitor, 6-[4-[2-(1-Piperidinyl)ethoxy]phenyl]-3-(4-pyridinyl)pyrazolo[1,5-a]pyrimidine]",enhances the efficacy of anti-PD-L1 antibody therapy,Synergistic effect,enhances the efficacy of anti-PD-L1 antibody therapy,Synergistic effect,,,,,,
"O=[N+]([O-])c1ccc(O)c([N+](=O)[O-])c1 [DNP, 2,4-dinitrophenol]",,,augmented the efficacy of PD-L1 antibody therapy; also recorded: enhance the antitumor effect of PD-L1 antibody,,also found to be activated,activated,stronger antitumor activity; also recorded: Antitumor effect is enhanced,failed to exhibit any antitumor effect,remarkably improved the survival rate,caused severe health problems
